According to PMC6364417, “Kinase inhibitor library screening identifies synergistic drug combinations effective in sensitive and resistant melanoma cells” (Journal of Experimental & Clinical Cancer Research : CR, 2019):

What was measured:
Test in all cases: Kinase inhibitor library screening, PrestoBlue cell viability, 1 or 10 μM, 72 h
[1] = test system: IGR37-XP cells (Vemurafenib-resistant)
[2] = test system: 501Mel cells (parental)
In short: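 Single-point screen at two doses over three days. Parental and BRAF-inhibitor-resistant sublines (XP: Vemurafenib; GP: Dabrafenib) were assessed by PrestoBlue viability, reported relative to untreated cells.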

[3] = test system: A375 cells (parental)
[4] = test system: 501Mel-GP cells (Dabrafenib-resistant)
[5] = test system: A375-XP cells (Vemurafenib-resistant)
[6] = test system: IGR37-GP cells (Dabrafenib-resistant)
[7] = test system: A375-GP cells (Dabrafenib-resistant)
[8] = test system: 501Mel-XP cells (Vemurafenib-resistant)
[9] = test system: IGR37 cells (parental)

C=CC(=O)Nc1cccc(Oc2nc(Nc3ccc(N4CCN(C)CC4)cc3)ncc2Cl)c1 [WZ3146]
cell viability, IGR37 XP, 10μΜ ([1]; IGR37 XP, 10μΜ, 72 h): 7% | cell viability, IGR37 XP, 1μΜ ([1]; IGR37 XP, 1μΜ, 72 h, in %): 73.3 | cell viability, 501Mel Parental, 10μΜ ([2]; 501Mel Parental, 10μΜ, 72 h, in %): 1.1 | cell viability, A375 Parental, 1μΜ ([3]; A375 Parental, 1μΜ, 72 h, in %): 87.2 | cell viability, A375 Parental, 10μΜ ([3]; A375 Parental, 10μΜ, 72 h, in %): 30.7 | cell viability, 501Mel GP, 1μΜ ([4]; 501Mel GP, 1μΜ, 72 h, in %): 102.6 | cell viability, 501Mel GP, 10μΜ ([4]; 501Mel GP, 10μΜ, 72 h, in %): 53.7 | cell viability, A375 XP, 1μΜ ([5]; A375 XP, 1μΜ, 72 h, in %): 94.3 | cell viability, A375 XP, 10μΜ ([5]; A375 XP, 10μΜ, 72 h, in %): 20.1 | cell viability, IGR37 GP, 10μΜ ([6]; IGR37 GP, 10μΜ, 72 h): 39% | cell viability, IGR37 GP, 1μΜ ([6]; IGR37 GP, 1μΜ, 72 h, in %): 92.8 | cell viability, A375 GP, 1μΜ ([7]; A375 GP, 1μΜ, 72 h, in %): 82.9 | cell viability, A375 GP, 10μΜ ([7]; A375 GP, 10μΜ, 72 h, in %): 22.9 | cell viability, 501Mel XP, 1μΜ ([8]; 501Mel XP, 1μΜ, 72 h, in %): 78.6 | cell viability, 501Mel XP, 10μΜ ([8]; 501Mel XP, 10μΜ, 72 h, in %): 0.0384 | cell viability, IGR37 Parental, 1μΜ ([9]; IGR37 Parental, 1μΜ, 72 h, in %): 96.7 | cell viability, IGR37 Parental, 10μΜ ([9]; IGR37 Parental, 10μΜ, 72 h, in %): 56.4

Cc1cc2c(F)c(Oc3ncnn4cc(OC[C@@H](C)OC(=O)[C@H](C)N)c(C)c34)ccc2[nH]1 [Brivanib alaninate (BMS-582664)]
cell viability (kinase inhibitor library screening) ([1]; IGR37 XP, 1μΜ, in %): 99.9 | cell viability (kinase inhibitor library screening) ([1]; IGR37 XP, 10μΜ, in %): 74.9 | cell viability (kinase inhibitor library screening) ([2]; 501Mel Parental, 1μΜ, in %): 99.4 | cell viability (kinase inhibitor library screening) ([2]; 501Mel Parental, 10μΜ, in %): 91.7 | cell viability (kinase inhibitor library screening) ([3]; A375 Parental, 1μΜ, in %): 104.1 | cell viability (kinase inhibitor library screening) ([3]; A375 Parental, 10μΜ, in %): 82.8 | cell viability (kinase inhibitor library screening) ([4]; 501Mel GP, 1μΜ, in %): 107.2 | cell viability (kinase inhibitor library screening) ([4]; 501Mel GP, 10μΜ, in %): 88.2 | cell viability (kinase inhibitor library screening) ([5]; A375 XP, 1μΜ, in %): 105.2 | cell viability (kinase inhibitor library screening) ([5]; A375 XP, 10μΜ, in %): 81.3 | cell viability (kinase inhibitor library screening) ([6]; IGR37 GP, 1μΜ, in %): 99.8 | cell viability (kinase inhibitor library screening) ([6]; IGR37 GP, 10μΜ, in %): 95.3 | cell viability (kinase inhibitor library screening) ([7]; A375 GP, 1μΜ, in %): 98.8 | cell viability (kinase inhibitor library screening) ([7]; A375 GP, 10μΜ, in %): 80.1 | cell viability (kinase inhibitor library screening) ([8]; 501Mel XP, 1μΜ, in %): 97.0 | cell viability (kinase inhibitor library screening) ([8]; 501Mel XP, 10μΜ, in %): 83.1 | cell viability (kinase inhibitor library screening) ([9]; IGR37 Parental, 1μΜ, in %): 107.1 | cell viability (kinase inhibitor library screening) ([9]; IGR37 Parental, 10μΜ, in %): 96.2

COC(=O)c1ccc2c(c1)NC(=O)/C2=C(\Nc1ccc(N(C)C(=O)CN2CCN(C)CC2)cc1)c1ccccc1 [BIBF1120 (Vargatef)]
cell viability (kinase inhibitor library screening) ([1]; IGR37 XP, 1μΜ, in %): 100.3 | cell viability (kinase inhibitor library screening) ([1]; IGR37 XP, 10μΜ, in %): 1.9 | cell viability (kinase inhibitor library screening) ([2]; 501Mel Parental, 1μΜ, in %): 103.8 | cell viability (kinase inhibitor library screening) ([2]; 501Mel Parental, 10μΜ, in %): 0.6 | cell viability (kinase inhibitor library screening) ([3]; A375 Parental, 1μΜ, in %): 104.6 | cell viability (kinase inhibitor library screening) ([3]; A375 Parental, 10μΜ, in %): 2.3 | cell viability (kinase inhibitor library screening) ([4]; 501Mel GP, 1μΜ, in %): 90.5 | cell viability (kinase inhibitor library screening) ([4]; 501Mel GP, 10μΜ, in %): -0.1 | cell viability (kinase inhibitor library screening) ([5]; A375 XP, 1μΜ, in %): 103.7 | cell viability (kinase inhibitor library screening) ([5]; A375 XP, 10μΜ, in %): 1.7 | cell viability (kinase inhibitor library screening) ([6]; IGR37 GP, 1μΜ, in %): 97.0 | cell viability (kinase inhibitor library screening) ([6]; IGR37 GP, 10μΜ, in %): 1.4 | cell viability (kinase inhibitor library screening) ([7]; A375 GP, 10μΜ, in %): 1.1 | cell viability (kinase inhibitor library screening) ([8]; 501Mel XP, 1μΜ, in %): 90.7 | cell viability (kinase inhibitor library screening) ([8]; 501Mel XP, 10μΜ, in %): -0.28 | cell viability (kinase inhibitor library screening) ([9]; IGR37 Parental, 10μΜ, in %): 0.645

COCC(=O)NC/C=C/c1ccc2ncnc(Nc3ccc(Oc4ccc(C)nc4)c(C)c3)c2c1 [CP-724714]
viability at 1 µM ([1]; Homo sapiens, IGR-37, 72 h, read-out: cell viability, IGR37 XP, 1μΜ): 89.5% | viability at 10 µM ([1]; Homo sapiens, IGR-37, 72 h, read-out: cell viability, IGR37 XP, 10μΜ): 52.3% | viability at 1 µM ([2]; Homo sapiens, 72 h, read-out: cell viability, 501Mel Parental, 1μΜ): 105% | viability at 10 µM ([2]; Homo sapiens, 72 h, read-out: cell viability, 501Mel Parental, 10μΜ): 102% | viability at 1 µM ([3]; Homo sapiens, A-375, 72 h, read-out: cell viability, A375 Parental, 1μΜ): 101% | viability at 10 µM ([3]; Homo sapiens, A-375, 72 h, read-out: cell viability, A375 Parental, 10μΜ): 90.2% | viability at 1 µM ([4]; Homo sapiens, 72 h, read-out: cell viability, 501Mel GP, 1μΜ): 109% | viability at 10 µM ([4]; Homo sapiens, 72 h, read-out: cell viability, 501Mel GP, 10μΜ): 87.4% | viability at 1 µM ([5]; Homo sapiens, A-375, 72 h, read-out: cell viability, A375 XP, 1μΜ): 109% | viability at 10 µM ([5]; Homo sapiens, A-375, 72 h, read-out: cell viability, A375 XP, 10μΜ): 103% | viability at 1 µM ([6]; Homo sapiens, IGR-37, 72 h, read-out: cell viability, IGR37 GP, 1μΜ): 91.8% | viability at 10 µM ([6]; Homo sapiens, IGR-37, 72 h, read-out: cell viability, IGR37 GP, 10μΜ): 86.1% | viability at 1 µM ([7]; Homo sapiens, A-375, 72 h, read-out: cell viability, A375 GP, 1μΜ): 103% | viability at 10 µM ([7]; Homo sapiens, A-375, 72 h, read-out: cell viability, A375 GP, 10μΜ): 95.4% | viability at 1 µM ([8]; Homo sapiens, 72 h, read-out: cell viability, 501Mel XP, 1μΜ): 101% | viability at 10 µM ([8]; Homo sapiens, 72 h, read-out: cell viability, 501Mel XP, 10μΜ): 77.8% | viability at 1 µM ([9]; Homo sapiens, IGR-37, 72 h, read-out: cell viability, IGR37 Parental, 1μΜ): 101% | viability at 10 µM ([9]; Homo sapiens, IGR-37, 72 h, read-out: cell viability, IGR37 Parental, 10μΜ): 98%
